Reference: ChEMBL document CHEMBL1126349, “Synthesis and biological properties of 1069C: a new synthetic antitumour agent with very low cross-resistance potential” (Bioorg Med Chem Lett, 1992)
Several values for one entry are separate records, joined by “and”; a condition that tells them apart may be missing. Equal entries are not always repeated. Activity calls are given as the source filed them. The rule behind the calls is not given here.

Assays:
P388 [1] = test: Compound was tested for % increase in life span of adriamycin resistant P388 tumor; type: functional, Mus musculus
P388 [2] = test: Compound was tested for % increase in life span of P388 tumor; type: functional, Mus musculus
Tubulin alpha chain [3] = molecular target: T1, Tubulin alpha chain (Sus scrofa, UniProt P02550); test: The compound was evaluated in vitro for the mammalian brain tubulin polymerization using standard assay.; type: functional
P388 [4] = test: The compound was evaluated in vitro for the inhibition of murine leukemia P388D1 cell proliferation.; type: functional, cell-based; conditions: Mus musculus
P388 [5] = test: Compound was tested for % increase in life span of vincristine resistant P388 tumor; type: functional, Mus musculus
P388 [6] = test: The compound was evaluated in vitro for the inhibition of P388D1 cell colony formation.; type: functional, cell-based; conditions: Mus musculus
P388 [7] = test: The compound was evaluated in vitro for the P388 cell spindle disruption.; 0.02-0.04; type: functional, cell-based; conditions: Mus musculus
P388 [8] = test: The compound was evaluated in vitro for the P388 cell spindle disruption.; 0.006-0.009; type: functional, cell-based; conditions: Mus musculus
Tubulin alpha chain [9] = molecular target: T1, Tubulin alpha chain; test: Compound was tested for competitive inhibition with radioligand [3H]colchicine at colchicine site of mammalian tubulin
[10] = molecular target: Tubulin alpha chain (Sus scrofa) (UniProt P02550); test: Compound was tested for competitive inhibition with radioligand [3H]colchicine or [3H]vinblastine at alkaloid site on mammalian tubulin; No effect
Tubulin alpha chain [11] = molecular target: T1, Tubulin alpha chain; test: In vitro mammalian brain tubulin polymerization using standard assay.; type: functional

T1 sequence (P02550 whole entry, looked up): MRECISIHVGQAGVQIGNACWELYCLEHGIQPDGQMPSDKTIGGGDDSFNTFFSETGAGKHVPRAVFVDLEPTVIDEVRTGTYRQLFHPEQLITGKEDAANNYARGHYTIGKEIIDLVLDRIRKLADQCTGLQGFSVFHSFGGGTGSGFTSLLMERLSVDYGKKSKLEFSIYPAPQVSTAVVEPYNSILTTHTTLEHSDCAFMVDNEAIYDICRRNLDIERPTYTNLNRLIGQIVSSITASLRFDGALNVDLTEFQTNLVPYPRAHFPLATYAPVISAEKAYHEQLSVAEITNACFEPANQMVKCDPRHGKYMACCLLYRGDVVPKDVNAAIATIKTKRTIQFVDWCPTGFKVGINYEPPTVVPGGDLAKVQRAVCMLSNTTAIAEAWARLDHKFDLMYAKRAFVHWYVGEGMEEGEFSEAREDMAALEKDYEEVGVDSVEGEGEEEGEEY
Tubulin alpha chain (Sus scrofa), sequence (P02550 whole entry, looked up): as above

Row | Structure (SMILES) | ILS (P388 [1]) [%] | ILS (P388 [2]) | IC50 (Tubulin alpha chain [3]) [nM] | IC50 (P388 [4]) [nM] | ILS (P388 [5]) [%] | IC50 (P388 [6]) [nM] | EC50 (P388 [7]) [nM] | EC50 (P388 [8]) [nM] | Ki (Tubulin alpha chain [9]) [nM] | Activity [10] | IC50 (Tubulin alpha chain [11]) [nM]
1 | COc1cccc2c1C(=O)c1c(O)c3c(c(O)c1C2=O)C[C@@](O)(C(=O)CO)C[C@@H]3O[C@H]1C[C@H](N)[C@H](O)[C@H](C)O1 [DOXORUBICIN] | ~25 | ~120% | – | – | – | – | – | – | – | – | –
2 | CC[C@]1(O)C[C@H]2CN(CCc3c([nH]c4ccccc34)[C@@](C(=O)OC)(c3cc4c(cc3OC)N(C=O)[C@H]3[C@@](O)(C(=O)OC)[C@H](OC(C)=O)[C@]5(CC)C=CCN6CC[C@]43[C@@H]65)C2)C1 [VINCRISTINE] | ~5 | ~130% | 220 | 4.7 | ~10 | 190 | 20 | – | – | – | –
3 | COc1cc([C@@H]2c3cc4c(cc3[C@@H](O[C@@H]3O[C@@H]5CO[C@@H](C)O[C@H]5[C@H](O)[C@H]3O)[C@H]3COC(=O)[C@H]23)OCO4)cc(OC)c1O [ETOPOSIDE] | ~20 | ~80% | – | – | – | – | – | – | – | – | –
4 | COC(=O)Nc1cn2nc(OCc3cc(OC)c(OC)c(OC)c3)ccc2n1 | ~110 | ~147% and ~120% | – | 8.9 | ~170 | 13 | – | 6 | 750 | inactive | 310
5 | COc1cc2c(c(OC)c1OC)-c1ccc(OC)c(=O)cc1[C@@H](NC(C)=O)CC2 [COLCHICINE] | – | ~85% | – | 0.62 | ~75 | 71 | – | – | – | – | –
6 | CC[C@]1(O)C[C@@H]2CN(CCc3c([nH]c4ccccc34)[C@@](C(=O)OC)(c3cc4c(cc3OC)N(C)[C@H]3[C@@](O)(C(=O)OC)[C@H](OC(C)=O)[C@]5(CC)C=CCN6CC[C@]43[C@@H]65)C2)C1 [VINBLASTINE] | – | ~100% | – | 1.7 | ~50 | 8.2 | – | – | – | – | –
